Values of other authors as cited in US7411005B2, “Compositions and methods for increasing milk production in animals” (Van Beek Natural Science, LLC, priority 2002, dated 2008).

Details: inactive metabolites after degradation by enzymes

| metabolites excreted in the urine | metabolites expired from the lungs in the form of CO2 [%] | SMILES |
| --- | --- | --- |
| approx. 90% | 10 | Cc1ccc(C(C)C)c(O)c1 [isopropyl-cresol, 5-methyl-2[1-methylethyl]phenol] |
| approx. 90% | 10 | Cc1ccc(C(C)C)cc1O [isopropyl-o-cresol, 5-isopropyl-2-methylphenol] |
